Test [1] deals with Influenza A virus. Put plainly: Antiviral activity against Influenza A virus A/PR/8/34 PA-I38T infected in MDCK cells assessed as reduction in virus-induced cytopathic effect incubated for 5 days by CCK8 based microplate spectrophotometric analysis. The class given is functional, organism-based. Conditions: for EC50: mdck; for EC90: time 5 day. Background: Protection from cytopathic effect is a common read-out in antiviral testing.

Test [2] has as its system Influenza A virus. Put plainly: Selectivity ratio of EC50 for antiviral activity against Influenza A virus A/PR/8/34 PA-I38T infected in MDCK cells to EC50 for antiviral activity against Influenza A virus A/PR/8/34 (H1N1) infected in MDCK cells. In kind it is functional.
Test [3] concerns Influenza A virus. Put plainly: Selectivity ratio of EC50 for antiviral activity against baloxavir-resistant Influenza A virus A/PR/8/34 infected in MDCK cells to EC50 for antiviral activity against Influenza A virus A/PR/8/34 (H1N1) infected in MDCK cells. The class given is functional.
The test system of test [4] is Influenza A virus. Put plainly: Antiviral activity against baloxavir-resistant Influenza A virus A/PR/8/34 infected in MDCK cells assessed as reduction in virus-induced cytopathic effect incubated for 5 days by CCK8 based microplate spectrophotometric analysis. The class given is functional, organism-based. Conditions: for EC50: mdck; for EC90: time 5 day.

As usually defined, the EC50 is the concentration at which the effect is half-maximal. Broadly, the EC90 is the concentration at which the effect reaches the 90% level. In the case of `CN1C(=O)c2c(O)c(=O)ccn2N2[C@H](c3ccc(F)cc3)c3cc(F)c(F)cc3OCC[C@@H]12`, in test [1], the EC50 was determined as 193 nM and the concentration for an effect of 90% (EC90) stood at 370 nM. In addition, in test [2], the “Ratio EC50” value was 14.

With `CN1C(=O)c2c(O)c(=O)ccn2N2[C@H](c3ccccc3)c3cc(F)c(F)cc3OCC[C@@H]12`, the “Ratio EC50” value in test [3] and in test [2] was 9.2 throughout. For the same compound, the EC50 in test [1] and in test [4] was 66 nM in each case. The EC90 in test [1] and in test [4] was 113 nM in each case.

Take `CN1C(=O)c2c(O)c(=O)ccn2N2[C@H](c3ccccc3F)c3cc(F)c(F)cc3OCC[C@@H]12`: in test [1], the EC50 was determined as 79 nM and the EC90 came to 123 nM. The “Ratio EC50” value in test [2] stood at 7.2.

Turning to `CN1C(=O)c2c(O)c(=O)ccn2N2[C@H](c3ccccc3)c3ccccc3OCC[C@@H]12`, in test [1], the EC50 was found to be 214 nM and the EC90 came out at 336 nM. Besides, the “Ratio EC50” value in test [2] is given as 15.

Regarding `CN1C(=O)c2c(O)c(=O)ccn2N2[C@H](c3ccc(F)c(F)c3)c3cc(F)c(F)cc3OCC[C@@H]12`, in test [1], the EC50 came to 211 nM and the EC90 turned out to be 393 nM. Further, the “Ratio EC50” value in test [2] came to 8.4.

As for `CC(C)N1C(=O)c2c(O)c(=O)ccn2N2[C@H](c3ccccc3)c3ccccc3OCC[C@@H]12` (racemic), in test [1], the EC50 came out at 435 nM and the EC90 was found to be 675 nM. Further, the “Ratio EC50” value in test [2] is recorded as 8.2.

On to `CN1C(=O)c2c(O)c(=O)ccn2N2[C@H](c3ccccc3Br)c3cc(F)c(F)cc3OCC[C@@H]12` (racemic), for which, in test [1], the concentration giving a half-maximal response (EC50) was 166 nM and the EC90 worked out at 344 nM. Also, the “Ratio EC50” value in test [2] was 15.

For `CN1C(=O)c2c(O)c(=O)ccn2N2[C@H](c3ccccc3)c3ccc(F)c(F)c3OCC[C@@H]12` (racemic), in test [1], the EC50 was found to be 512 nM and the EC90 came out at 795 nM. The “Ratio EC50” value in test [2] is given as 10.

Regarding `O=C1c2c(O)c(=O)ccn2N([C@@H]2c3ccccc3SCc3c2ccc(F)c3F)[C@@H]2COCCN12` [BALOXAVIR], the “Ratio EC50” value in test [3] and in test [2] was 68 throughout. The EC50 in test [1] and in test [4] was 142 nM throughout. In addition, the EC90 in test [1] and in test [4] was 232 nM throughout.

(Values after ChEMBL document CHEMBL5528039, “Discovery of a Macrocyclic Influenza Cap-Dependent Endonuclease Inhibitor” (J Med Chem, 2024).)
